Drawing on PubChem BioAssay (NCI), this text covers GI50 and TGI for 10 compounds.

Values joined by “and” are separate entries in the source; they are usually repeats but may differ in a detail not shown here. Equal values may be shown once.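 Cultured in 96-well plates, cells were exposed to test compound for 48 hours across five concentrations. GI50 is the concentration that inhibits growth by half. TGI: concentration producing complete growth inhibition.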

Among the test systems are MALME-3M melanoma; NCI-H522 lung; ACHN renal; TK-10 renal; SN12C renal; M14 melanoma; SF-539 CNS; OVCAR-3 ovarian.
Test in all cases: inhibition of tumour cell growth, NCI panel, 48 h

`O=C1NC(=O)C(c2cnc3ccccn23)=C1c1cn2c3c(cc(F)cc13)CN(C(=O)N1CCCCC1)CC2`: the GI50 was 30.7 µM in the assay on MALME-3M melanoma; 13.9 µM with NCI-H522 lung; 1.37 µM in the assay with ACHN renal; 0.0416 µM with TK-10 renal; 9.54 µM with SN12C renal; 13.7 µM in the assay on M14 melanoma. Besides, the GI50 in the assay on SF-539 CNS was 2.74 µM; with OVCAR-3 ovarian, 11.8 µM. In addition, the TGI was 60.8 µM in the assay with MALME-3M melanoma; 40.1 µM with NCI-H522 lung; greater than 72.5 µM in the assay with ACHN renal; 23.8 µM in the assay with TK-10 renal; 54.6 µM in the assay with SN12C renal; 36.6 µM in the assay with M14 melanoma. Besides, the TGI turned out to be 24.4 µM in the assay on SF-539 CNS and 44 µM with OVCAR-3 ovarian.
As for `CCOC(=O)CCCn1c(SC)nc2[nH]cc(-c3ccccc3)c2c1=O`, the GI50 is 15.1 µM with MALME-3M melanoma; 15 µM in the assay with NCI-H522 lung; 8.09 µM with ACHN renal; 46.1 µM with TK-10 renal; 17 µM in the assay on SN12C renal; 15.4 µM with M14 melanoma. Moreover, the GI50 in the assay on SF-539 CNS is 18.4 µM; with OVCAR-3 ovarian it was 16.8 µM. The TGI with MALME-3M melanoma is 42.1 µM; in the assay with NCI-H522 lung, 37.8 µM; in the assay with ACHN renal, 43.2 µM; in the assay with TK-10 renal it was greater than 100 µM; in the assay with SN12C renal, 49.9 µM; in the assay with M14 melanoma, 31.6 µM. Also, the TGI was determined as 46.1 µM with SF-539 CNS and 42.6 µM in the assay with OVCAR-3 ovarian.
For the compound `O=C(O)CCC(=O)c1ccc[nH]1`, the TGI in the assay with MALME-3M melanoma, with NCI-H522 lung, in the assay on ACHN renal, in the assay on TK-10 renal, in the assay on SN12C renal and in the assay on M14 melanoma was greater than 100 µM throughout. Moreover, the TGI in the assay with SF-539 CNS and in the assay with OVCAR-3 ovarian was greater than 100 µM in each case.
Take `N#Cc1c(NN)n(C2OC(CO)C(O)C2O)c2ncnc(N)c12` (stereo not given): the GI50 in the assay with MALME-3M melanoma was 0.0858 µM; in the assay on NCI-H522 lung it was 0.198 µM; in the assay on ACHN renal it was 0.0385 µM; in the assay with TK-10 renal it was 0.247 µM; in the assay on SN12C renal, 0.151 µM; in the assay on M14 melanoma it was 0.0532 µM. Moreover, the values for the GI50 with SF-539 CNS and in the assay on OVCAR-3 ovarian were 0.337 µM and 0.028 µM, respectively. The TGI in the assay with MALME-3M melanoma is 1.35 µM; with NCI-H522 lung, 0.469 µM; in the assay on TK-10 renal, 7.93 µM; in the assay with SN12C renal, greater than 47.5 µM; in the assay with M14 melanoma, 0.303 µM; in the assay with SF-539 CNS, 1.48 µM. In addition, the TGI in the assay on OVCAR-3 ovarian was 0.299 µM.
Regarding `CC(C)CCN1c2nc(Nc3cc(F)c(O)c(F)c3)ncc2N(C)C(=O)C1C` (stereo not given), the GI50 in the assay on MALME-3M melanoma was 6.63 µM; in the assay with NCI-H522 lung, 2.52 µM; with ACHN renal, 3.21 µM; in the assay on TK-10 renal it was 4.34 µM; in the assay on SN12C renal it was 4.9 µM; with M14 melanoma it was 4.59 µM. Moreover, the GI50 with SF-539 CNS is 4.26 µM; with OVCAR-3 ovarian, 3.65 µM. In addition, the TGI in the assay with MALME-3M melanoma is 64 µM; in the assay on NCI-H522 lung, 22.4 µM; in the assay with ACHN renal, greater than 59.5 µM; in the assay on TK-10 renal, greater than 87.2 µM; with SN12C renal it was greater than 91.6 µM; with M14 melanoma it was 26.1 µM. The TGI came out at 21.8 µM in the assay with SF-539 CNS and 24.1 µM in the assay on OVCAR-3 ovarian.
With `O/N=C/C1C(OCc2ccccc2)C(OCc2ccccc2)C(OCc2ccccc2)CN1Cc1ccccc1` (stereo not given), the TGI in the assay on MALME-3M melanoma was 97.6 µM and 33.6 µM; with NCI-H522 lung, greater than 100 µM; with ACHN renal, 37.4 µM and > 100 µM; with TK-10 renal, 58.8 µM and > 100 µM; in the assay on SN12C renal, 62 µM and > 100 µM; in the assay on M14 melanoma, 40.3 µM and > 100 µM. For the same compound, the TGI in the assay with SF-539 CNS was greater than 100 µM; in the assay on OVCAR-3 ovarian it was 40.2 µM and > 100 µM. Besides, the GI50 in the assay with ACHN renal is 15.2 µM and 4.4 µM; with TK-10 renal, 22 µM and 3.08 µM; with SN12C renal, 20.6 µM and 4.32 µM; in the assay with M14 melanoma, 11.7 µM and 5.68 µM; in the assay with OVCAR-3 ovarian, 16.9 µM and 7.69 µM.
As for `O=C(O)C1C2C=CC(O2)C1C(=O)NCc1ccccn1` (stereo not given), the TGI in the assay on MALME-3M melanoma, in the assay with NCI-H522 lung, in the assay on ACHN renal, in the assay with TK-10 renal, in the assay on SN12C renal and with M14 melanoma was greater than 100 µM throughout. The TGI in the assay with SF-539 CNS and in the assay with OVCAR-3 ovarian was greater than 100 µM each time.
As for `O=C1/C(=C/c2ccc(Br)cc2)COc2ccc(O)c(O)c21`, the GI50 in the assay with MALME-3M melanoma is 1.11 µM; in the assay with NCI-H522 lung, 0.158 µM; with ACHN renal it was 0.828 µM; with TK-10 renal, 1.7 µM; with SN12C renal it was 0.617 µM; with M14 melanoma it was 1.41 µM. The GI50 is 0.436 µM with SF-539 CNS and 0.493 µM in the assay on OVCAR-3 ovarian. For the same compound, the TGI in the assay with MALME-3M melanoma was 3.35 µM; in the assay with NCI-H522 lung it was 0.348 µM; in the assay on ACHN renal it was 2.09 µM; with TK-10 renal, 3.2 µM; in the assay on SN12C renal, 2.32 µM; with M14 melanoma, 3.47 µM. In addition, the TGI with SF-539 CNS was found to be 1.19 µM; in the assay with OVCAR-3 ovarian, 1.56 µM.
Take `CCN(CC)CCCC(CNc1ccnc2cc(Cl)ccc12)c1ccc(Cl)cc1` (stereo not given): the GI50 was 1.41 µM and 1.25 µM in the assay with MALME-3M melanoma; 1.69 µM and 0.859 µM in the assay on NCI-H522 lung; 1.31 µM and 0.705 µM with ACHN renal; 1.67 µM and 0.83 µM with TK-10 renal; 1.96 µM and 1.92 µM in the assay with SN12C renal; 0.227 µM and 0.203 µM in the assay with M14 melanoma. Besides, the GI50 is 1.23 µM and 1.52 µM in the assay on SF-539 CNS; 2.46 µM and 2.38 µM in the assay with OVCAR-3 ovarian. For the same compound, the TGI was 3.02 µM and 2.72 µM in the assay on MALME-3M melanoma; 3.51 µM and 2.55 µM in the assay with NCI-H522 lung; 2.89 µM and 2.07 µM in the assay with ACHN renal; 3.24 µM and 2.08 µM in the assay on TK-10 renal; 4.78 µM and 4.3 µM in the assay on SN12C renal; 0.612 µM and 0.405 µM in the assay with M14 melanoma. Besides, the TGI with SF-539 CNS was 2.67 µM and 3.07 µM; in the assay on OVCAR-3 ovarian, 7.73 µM and 9.83 µM.
As to `O=c1c2sc(=S)n(-c3ccc(F)cc3)c2ncn1Cc1ccc(F)cc1F`, the GI50 in the assay on MALME-3M melanoma was greater than 100 µM; with NCI-H522 lung it was greater than 100 µM; in the assay with ACHN renal, greater than 100 µM; with TK-10 renal, 96 µM; with SN12C renal, greater than 100 µM; in the assay on M14 melanoma it was greater than 100 µM. Further, the GI50 in the assay on SF-539 CNS and in the assay with OVCAR-3 ovarian was greater than 100 µM in each case. Further, the TGI in the assay with MALME-3M melanoma, with NCI-H522 lung, with ACHN renal, in the assay with TK-10 renal, with SN12C renal and in the assay on M14 melanoma was greater than 100 µM throughout. The TGI with SF-539 CNS and in the assay on OVCAR-3 ovarian was greater than 100 µM each time.
